Data from patent US12521564B2, “Method and apparatus for oncomagnetic treatment” (THE METHODIST HOSPITAL, priority 2020, dated 2026).
“Also recorded” adds a separate entry of the source.

Legend:
[1] = system: GBM cells; settings: FCCP added after 2-3 OMF stimulation cycles
Procedure: In cultured GBM156 cells 10-minute stimulation/pause cycles were used to provoke a MPT response.
Oxygen electrode data collection: A thermostatically controlled (37° C.), water-jacketed, glass-walled, Clark-type O2 electrode was used throughout. […] The oncoscillator was attached to the end of a microphone stand and was held perpendicular to the outer glass wall of the electrode, so that there was an air gap of ≈5 mm between the two devices. There was a degree of crosstalk between to stirring bar of the O2-electrode chamber and the oncoscillator; this interaction manifests itself as jumps or drops in the apparent O2 concentrations at the beginning or the end of OMF stimulation. […] The stirrer velocity was therefore optimized to negate the interaction with the oncoscillator.
Tumor culture preparations: GBM and meningioma tumors were taken at the time of (first) excision and given the laboratory ID. They were washed in PBS, chopped with a scalpel and homogenized in a BeadBug™ homogenizer using 1.5 mm Zirconium beads, in an equal volume of PBS. […] The homogenates were grown in DMEM with 20% FBS, 1U GlutaMax™, sodium pyruvate (1 mM), penicillin (100 U/ml), and streptomycin (100 mg/ml). […]
Cells were grown to confluency, counted, harvested using trypsin, washed in ice-cold PBS and stored on ice at 8×10^9 cells/ml. O2 consumption of cells was measured in PBS, 10 mM glucose, 37° C. […]

[2] = system: GBM cells; test: Surviving cell count after OMF stimulation in presence of drugs; assay type: cell-based, human
Source text: Histograms of the percentage of cells plotted against the normalized fluorescence intensity (ratio of intensity to the width of the forward scatter) measured by flow cytometry of H2DCF-stained GBM (U87) and normal astroglial (SVGp12) cells reveal nearly a two-fold increase in GBM cells due to OMF, but a ˜50% decrease in astroglial cells (FIG. 44). To test whether cell death is caused by the OMF-induced increase in ROS, a potent antioxidant Trolox was used to counteract it, while measuring the decrease in GBM cell count due to 4 h exposure to OMF. Conversely, it also was asked whether OMF potentiates the cell killing effect of a known ROS inducer, benzylamine. […] Magnetically influenced RPM plays a role in ubiquitously expressed flavoproteins called cryptochromes, which can also generate ROS when perturbed by magnetic fields. Cryptochrome agonists have been recently shown to inhibit cancer stem cell proliferation in GBM. This alternative possibility for generation of ROS by OMF was tested by counting surviving cells after two 4 h sessions of OMF stimulation over 24 h in the presence and absence of a cryptochrome antagonist, KS15. […] According to a certain setup, cells grown in 96-well cell culture plates were OMF stimulated, sham stimulated or unstimulated for 4 h inside humidified CO2 incubator. Paraformaldehyde (4% w/v in PBS) was used for fixation and DAPI was used for staining nuclei. […] Live and dead cell images were captured at 10× magnification on a Nikon Eclipse TE2000-E microscope and analyzed with NIS-Element program or a Carl Zeiss Axio Observer microscope with an onstage incubation chamber having a humidified 5% CO2 supply. […] […] To do this surviving cells were counted after two 4 h sessions of OMF stimulation over 24 h in the presence and absence of a cryptochrome antagonist, KS15.

[3] = system: rat liver mitochondria (RLM); test: O2 electrode trace of rat liver mitochondria metabolizing succinate under OMF stimulation; assay type: biochemical; settings: 5 μM bongkrekic acid, RLM metabolizing 5 mM succinate
Procedure: FIG. 18A illustrates an apparatus 1800 used to perform the procedures outlined above. The apparatus 1800 includes oncoscillator component and generates OMF by rotating an N52 permanent Neodymium rare earth magnet. The oncoscillator assembly is held by a microphone stand, placed next to the water jacketed O2 electrode with a 5 mm air gap, halting vibration transfer. The oncoscillator is positioned so that the center of 1 ml media chamber is exposed to a magnetic field of ≈8 mT. The rotation of the oncoscillator magnet has a small artifactual effect on the O2 electrode stirrer bar giving rise to an apparent drop or rise in O2 levels.
The effect of OMF on energized rat liver mitochondria (RLM) was examined. […] After the addition of succinate the slow ‘State 4’ consumption of O2 (≈10 e^−s^−1) that is typical of RLM oxidizing succinate in the absence of ADP (‘State 3’) or uncouplers is observed. In state 4 the electron flux from succinate dehydrogenase, the bc1 complex and cytochrome c oxidase is controlled by the presence of a large membrane potential (ΔΨ) and ΔpH, estimated to be […] and 11 mV, respectively, under similar conditions.
When OMF stimulation is initiated, respiration is completely halted for the whole 5-min OMF stimulation period. […] After this second stimulation regime ended, respiration restarted at the rate recorded prior to the stimulation cycle. […]

[4] = system: DIPG cells; test: O2 consumption of primary DIPG cells under OMF stimulation cycles; assay type: cell-based, human; settings: 5 μM bongkrekic acid
Source text: Before OMF stimulation the O2 consumption rate is ≈40 pMol O2 sec^−1 million cells^−1, similar to that seen in Chinese hamster ovary cells (100%). During the first five minutes of OMF stimulation cycle, respiration rate falls by a third, and during the first fifteen-minute pause this respiration rate remains at 65% of the initial rate. During the second stimulation cycle, respiration falls to only 45% of the control rate. When the cycle ends the rate rises to 58%, but over the 15-minute pause the flux slows down. During the third stimulation cycle, O2 consumption is held at half the initial rate, but when stimulation ceases a rapid increase in respiration is observed, which increases over the first 10 min and then begins to slow.
The large increase in mitochondrial electron flux that is observed at the end of the third cycle is consistent with a relatively homogenous population of cells, all undergoing MPT simultaneously. To test if this is the correct interpretation of the data, the experiment was rerun, but this time in the presence of 5 μM bongkrekic acid (FIG. 20B). Blocking the ANT with bongkrekic acid slows the steady state mitochondrial electron flux to 55% of that seen in its absence (both rates arc normalized to 100% in each panel for case of interpretation). […]
O2 consumption of cells was measured in PBS, 10 mM glucose, 37° C. […]

[5] = system: high-grade meningioma cells; test: O2 consumption of primary high-grade meningioma cells under OMF stimulation cycles; assay type: cell-based, human; settings: cells pretreated with bongkrekic acid
Source text: FIG. 21 follows the format of FIG. 20, but this time primary high-grade meningioma cells were used, showing that OMF stimulation cycles cause MPT. In these cells stimulation causes a 75% drop in the electron flux, and after the end of the first cycle, the cells maintain only half their initial rate (FIG. 21A). During the second cycle of stimulation mitochondrial respiration is completely halted, and as soon as the stimulation stops there is a burst of O2 uptake ≥6 times the initial steady state level. This rate drops in a first order manner.
Oxygen electrode data collection: A thermostatically controlled (37° C.), water-jacketed, glass-walled, Clark-type O2 electrode was used throughout. […] There was a degree of crosstalk between to stirring bar of the O2-electrode chamber and the oncoscillator; this interaction manifests itself as jumps or drops in the apparent O2 concentrations at the beginning or the end of OMF stimulation.
The homogenates were grown in DMEM with 20% FBS, 1U GlutaMax™, sodium pyruvate (1 mM), penicillin (100 U/ml), and streptomycin ([…]).
O2 consumption of cells was measured in PBS, 10 mM glucose, 37° C. 2 μM carbonyl cyanide trifluoromethoxyphenylhydrazone.

Structure (SMILES): N#CC(C#N)=NNc1ccc(OC(F)(F)F)cc1 [FCCP, carbonyl cyanide-p-trifluoromethoxyphenylhydrazone]
- O2 consumption after addition of FCCP [1]: did not lead to an increase in O2 consumption

Structure (SMILES): CCO[C@H](Cc1cccc(/C(C)=N/OCc2ccc(Br)cc2)c1)C(=O)O [KS15]
- effect on the decrease in cell count produced by OMF ([2]; two 4 h sessions of OMF stimulation over 24 h, presence vs absence of KS15): significant partial attenuation

Structure (SMILES): CO[C@H](C/C=C\C=C\CC/C=C/C[C@H](C)/C=C/C(=C\C(=O)O)CC(=O)O)/C(C)=C\C=C(/C)C(=O)O [bongkrekic acid]
- mitochondrial 'State 4' flux [3]: inhibits
- oncoscillator-induced permeability transition ([3]; OMF stimulation): completely abolishes
- steady state mitochondrial electron flux, % of that seen in absence of bongkrekic acid ([4]; 2×10^6/ml DIPG cells in glucose supplemented PBS): 55%
- OMF-induced permeability transition (increase in respiration rate) ([4]; repeated OMF stimulation cycles): no increase in rate indicative of the permeability transition; also recorded: blocking the permeability
- OMF-induced increase in O2 uptake rate (MPT) [5]: abolished; also recorded: blocks the permeability

Structure (SMILES): NCc1ccccc1 [benzylamine]
- potentiation by OMF of the cell killing effect of the ROS inducer ([2]; 4 h exposure to OMF, benzylamine): predictions are confirmed

Structure (SMILES): Cc1c(C)c2c(c(C)c1O)CCC(C)(C(=O)O)O2 (stereo not drawn) [Trolox]
- counteraction of the decrease in GBM cell count due to OMF-induced ROS ([2]; 4 h exposure to OMF, antioxidant Trolox): predictions are confirmed
